Assay results as given in the NIST ThermoML archive (doi:10.1021/je300993n).
± gives the expanded uncertainty stated by the source.

What was measured:
[1] = refractive index (Na D-line) (dimensionless); wn = mass fraction of the nth substance listed; settings: 293.15 K, 101 kPa, Liquid, Standard Abbe refractometry
[2] = for mass density: 293.15 K, 101.33 kPa, gas displacement; for Normal melting temperature / Triple point temperature: DTA
[3] = refractive index (Na D-line) (dimensionless); settings: 293.15 K; 101.33 kPa; Liquid; Standard Abbe refractometry

refractive index ([1]; w1 = 0.1)	refractive index ([1]; w1 = 0.2)	refractive index ([1]; w1 = 0.3)	refractive index ([1]; w1 = 0.4)	refractive index ([1]; w2 = 0)	Compound	further results
1.3349 ± 0.0051	1.3408 ± 0.0051	1.3498 ± 0.0051	1.3571 ± 0.0051		CC[N+](CC)(CC)CC.[F][Sb-]([F])([F])([F])([F])[F] [tetraethylammonium hexafluoroantimonate] + O=S(=O)(O)C(F)(F)F	refractive index ([1]; w1 = 0.5): 1.3641 ± 0.0051; refractive index ([1]; w1 = 0.6): 1.3678 ± 0.005
				1.3292 ± 0.005	O=S(=O)(O)C(F)(F)F [methanesulfonic acid, trifluoro-] + CC[N+](CC)(CC)CC.F[P-](F)(F)(F)(F)F	
1.3421 ± 0.0051	1.3512 ± 0.0051	1.3601 ± 0.0051	1.3656 ± 0.0051		CC[N+](CC)(CC)CC.F[B-](F)(F)F [tetraethylammonium tetrafluoroborate] + O=S(=O)(O)C(F)(F)F	refractive index ([1]; w1 = 0.5): 1.3732 ± 0.0051
				1.3292 ± 0.005	O=S(=O)(O)C(F)(F)F [methanesulfonic acid, trifluoro-] + CCCCCC[N+](CC)(CC)CC.[F][Sb-]([F])([F])([F])([F])[F]	
				1.3292 ± 0.005	O=S(=O)(O)C(F)(F)F [methanesulfonic acid, trifluoro-] + CCCC[N+](CC)(CC)CC.F[B-](F)(F)F	
				1.3292 ± 0.005	O=S(=O)(O)C(F)(F)F [methanesulfonic acid, trifluoro-] + CC[N+](CC)(CC)CC.F[B-](F)(F)F	
1.3398 ± 0.0051	1.3499 ± 0.0051	1.3602 ± 0.0051	1.3691 ± 0.0051		CC[N+](CC)(CC)CC.F[P-](F)(F)(F)(F)F [tetraethylammonium hexafluorophosphate] + O=S(=O)(O)C(F)(F)F	
				1.3292 ± 0.005	O=S(=O)(O)C(F)(F)F [methanesulfonic acid, trifluoro-] + CC[N+](CC)(CC)CC.[F][Sb-]([F])([F])([F])([F])[F]	
				1.3292 ± 0.005	O=S(=O)(O)C(F)(F)F [methanesulfonic acid, trifluoro-] + CCCC[N+](CC)(CC)CC.F[P-](F)(F)(F)(F)F	

Second part, the molecule before the results:

Compound	refractive index ([1]; w1 = 0.1)	refractive index ([1]; w1 = 0.2)	refractive index ([1]; w1 = 0.3)	refractive index ([1]; w1 = 0.4)	refractive index ([1]; w2 = 0)	further results
CCCCCCCC[N+](CC)(CC)CC.F[P-](F)(F)(F)(F)F [N,N,N-triethyl-N-octylammonium hexafluorophosphate] + O=S(=O)(O)C(F)(F)F	1.3427 ± 0.0052	1.3562 ± 0.0052	1.3681 ± 0.0051	1.3781 ± 0.0051		refractive index ([1]; w1 = 0.5): 1.3875 ± 0.0051
CCCCCC[N+](CC)(CC)CC.F[P-](F)(F)(F)(F)F [N,N,N-triethyl-N-hexylammonium hexafluorophosphate]						mass density ([2]; Crystal): 1351 ± 16 kg/m3; Normal melting temperature ([2]; Crystal): 161.60 ± 0.5 °C
CCCCCCCC[N+](CC)(CC)CC.F[B-](F)(F)F [N,N,N-triethyl-N-octylammonium tetrafluoroborate]						mass density ([2]; Crystal): 1065 ± 16 kg/m3; Normal melting temperature ([2]; Crystal): 101.40 ± 0.5 °C
CCCC[N+](CC)(CC)CC.F[B-](F)(F)F [N,N,N-triethyl-N-butylammonium tetrafluoroborate]						mass density ([2]; Crystal 2): 1140 ± 16 kg/m3; Normal melting temperature ([2]; Crystal 1): 161.90 ± 0.5 °C; Triple point temperature ([2]; Crystal 2): 305.85 ± 0.5 K
CCCC[N+](CC)(CC)CC.F[P-](F)(F)(F)(F)F [N,N,N-triethyl-N-butylammonium hexafluorophosphate]						mass density ([2]; Crystal): 1366 ± 16 kg/m3; Normal melting temperature ([2]; Crystal 1): 178.90 ± 0.5 °C
O=S(=O)(O)C(F)(F)F [methanesulfonic acid, trifluoro-]						refractive index [3]: 1.3292 ± 0.005
O=S(=O)(O)C(F)(F)F [methanesulfonic acid, trifluoro-] + CCCCCCCC[N+](CC)(CC)CC.F[P-](F)(F)(F)(F)F					1.3292 ± 0.005	
CCCC[N+](CC)(CC)CC.F[B-](F)(F)F [N,N,N-triethyl-N-butylammonium tetrafluoroborate] + O=S(=O)(O)C(F)(F)F	1.3451 ± 0.0052	1.3543 ± 0.0051	1.3636 ± 0.0051	1.3698 ± 0.0051		refractive index ([1]; w1 = 0.5): 1.3771 ± 0.0051; refractive index ([1]; w1 = 0.6): 1.3857 ± 0.0051
CCCCCC[N+](CC)(CC)CC.[F][Sb-]([F])([F])([F])([F])[F] [N,N,N-triethyl-N-hexylammonium hexafluoroantimonate]						mass density ([2]; Crystal): 1488 ± 16 kg/m3; Normal melting temperature ([2]; Crystal): 174.00 ± 0.5 °C
CCCCCC[N+](CC)(CC)CC.F[P-](F)(F)(F)(F)F [N,N,N-triethyl-N-hexylammonium hexafluorophosphate] + O=S(=O)(O)C(F)(F)F	1.3421 ± 0.0052	1.3549 ± 0.0052	1.3667 ± 0.0051	1.3762 ± 0.0051		
CC[N+](CC)(CC)CC.F[P-](F)(F)(F)(F)F [tetraethylammonium hexafluorophosphate]						mass density ([2]; Crystal): 1440 ± 16 kg/m3; Normal melting temperature ([2]; Crystal): 77.10 ± 0.5 °C
CCCCCC[N+](CC)(CC)CC.F[B-](F)(F)F [N,N,N-triethyl-N-hexylammonium tetrafluoroborate]						mass density ([2]; Crystal): 1094 ± 16 kg/m3; Normal melting temperature ([2]; Crystal): 88.20 ± 0.5 °C
CCCCCCCC[N+](CC)(CC)CC.F[P-](F)(F)(F)(F)F [N,N,N-triethyl-N-octylammonium hexafluorophosphate]						mass density ([2]; Crystal 2): 1190 ± 16 kg/m3; Normal melting temperature ([2]; Crystal 1): 88.30 ± 0.5 °C; Triple point temperature ([2]; Crystal 2): 311.65 ± 0.5 K
O=S(=O)(O)C(F)(F)F [methanesulfonic acid, trifluoro-] + CCCCCC[N+](CC)(CC)CC.F[B-](F)(F)F					1.3292 ± 0.005	
CCCCCCCC[N+](CC)(CC)CC.F[B-](F)(F)F [N,N,N-triethyl-N-octylammonium tetrafluoroborate] + O=S(=O)(O)C(F)(F)F	1.3493 ± 0.0052	1.3583 ± 0.0051	1.3672 ± 0.0051	1.3745 ± 0.0051		refractive index ([1]; w1 = 0.5): 1.3811 ± 0.0051
CC[N+](CC)(CC)CC.[F][Sb-]([F])([F])([F])([F])[F] [tetraethylammonium hexafluoroantimonate]						mass density ([2]; Liquid): 1715 ± 16 kg/m3
O=S(=O)(O)C(F)(F)F [methanesulfonic acid, trifluoro-] + CCCCCC[N+](CC)(CC)CC.F[P-](F)(F)(F)(F)F					1.3292 ± 0.005	
CCCC[N+](CC)(CC)CC.F[P-](F)(F)(F)(F)F [N,N,N-triethyl-N-butylammonium hexafluorophosphate] + O=S(=O)(O)C(F)(F)F	1.3405 ± 0.0052	1.3522 ± 0.0052	1.3632 ± 0.0051	1.3745 ± 0.0051		refractive index ([1]; w1 = 0.5): 1.3786 ± 0.005; refractive index ([1]; w1 = 0.6): 1.3782 ± 0.005
CCCCCC[N+](CC)(CC)CC.[F][Sb-]([F])([F])([F])([F])[F] [N,N,N-triethyl-N-hexylammonium hexafluoroantimonate] + O=S(=O)(O)C(F)(F)F	1.3381 ± 0.0051	1.3462 ± 0.0051	1.3563 ± 0.0051	1.3628 ± 0.0051		refractive index ([1]; w1 = 0.5): 1.3722 ± 0.0051; refractive index ([1]; w1 = 0.6): 1.3809 ± 0.0051
CCCCCC[N+](CC)(CC)CC.F[B-](F)(F)F [N,N,N-triethyl-N-hexylammonium tetrafluoroborate] + O=S(=O)(O)C(F)(F)F	1.3475 ± 0.0052	1.3572 ± 0.0051	1.3654 ± 0.0051	1.3728 ± 0.0051		refractive index ([1]; w1 = 0.5): 1.3782 ± 0.0051
O=S(=O)(O)C(F)(F)F [methanesulfonic acid, trifluoro-] + CCCCCCCC[N+](CC)(CC)CC.F[B-](F)(F)F					1.3292 ± 0.005	
CC[N+](CC)(CC)CC.F[B-](F)(F)F [tetraethylammonium tetrafluoroborate]						mass density ([2]; Crystal): 1220 ± 16 kg/m3; Normal melting temperature ([2]; Crystal): 71.40 ± 0.5 °C
